Measured values as given in patent publication US9393190B2, “Methods for enhancing skin tan and reducing risks of UV skin damage” (DSM IP ASSETS B.V., priority 2009, dated 2016).

Test system: Normal human melanocytes NHM (HEMn-MP, Clonetics)
Experiment: Quantification of melanin synthesis in cell culture (total melanin, absorbance at 405 nm)
Type: cell-based
Method: Quantification of Melanin Synthesis in Cell Culture:
Normal human melanocytes NHM (HEMn-MP, Clonetics) were seeded in 96 well cell culture plates and grown to sub-confluence for two days in a mixture of M2-Medium (Clonetics) and Medium (Promocell). Culture medium was exchanged with Culture Medium containing Steviol (96%) and melanogenesis progressed for another three days at 37° C. with another medium exchange on day two. Including cell layer and culture supernatant the total melanin was extracted using 1.7M KOH with vigorous shaking at RT. The total melanin content was determined at 405 nm in an absorbance plate reader versus a control (100%)

C=C1C[C@@]23CC[C@H]4[C@@](C)(CCC[C@@]4(C)C(=O)O)[C@@H]2CC[C@]1(O)C3 [Steviol]
effect on the production of melanin in human melanocytes (0.25 to 1 micro M): clear dose dependent positive effect
potency relative to positive control Glycyrrhizin (melanin production in human melanocytes): about 1000 times
